According to patent publication US20250312341A1, “METHODS FOR TREATING PATIENTS WITH LOCALLY ADVANCED AND/OR METASTATIC SOLID TUMORS USING A DGK ZETA INHIBITOR” (ASTELLAS PHARMA INC., priority 2022, published 2025):

Experiments:
[1] = 4-week repeated dose toxicity study in rats; type: in vivo
Method: (§1) Compound I has been tested in numerous preclinical studies. Data from the 4-week repeated dose toxicity study in rats and 4-week repeated dose toxicity study in cynomolgus monkeys determined STD10 in rats to be 30 mg/kg/day and the HNSTD in cynomolgus monkeys to be 3 mg/kg/day. Human equivalent doses based on body surface area conversion (conversion factors: 0.16 for rat, 0.32 for monkey) of the STD10 in rats and the HNSTD in cynomolgus monkeys are 4.8 mg/kg and 0.96 mg/kg, respectively. For a person of 60 kg body weight, one tenth of the rat STD10 is 28.8 mg (4.8 mg/kg× 1/10×60 kg) and one sixth of the HNSTD is 9.6 mg (0.96 mg/kg×⅙×60 kg). Cynomolgus monkey is the more sensitive species. Therefore, based on cynomolgus monkey HNSTD, the starting dose in human is judged to be 9.6 mg/participant once daily (QD) given orally (actual starting dose will be 10 mg based on 10 mg tablet strength).

[2] = Nonclinical safety assessments; type: in vivo
[3] = 4-week repeated dose toxicity study in cynomolgus monkeys; type: in vivo
Method: as §1

DGKζ = DGKζ (Homo sapiens, UniProt Q13574); test: Nonclinical pharmacology: inhibition of DGKζ activity; type: biochemical; details: nonclinical pharmacology studies
Chain of DGKζ (Q13574 whole entry, species assumed): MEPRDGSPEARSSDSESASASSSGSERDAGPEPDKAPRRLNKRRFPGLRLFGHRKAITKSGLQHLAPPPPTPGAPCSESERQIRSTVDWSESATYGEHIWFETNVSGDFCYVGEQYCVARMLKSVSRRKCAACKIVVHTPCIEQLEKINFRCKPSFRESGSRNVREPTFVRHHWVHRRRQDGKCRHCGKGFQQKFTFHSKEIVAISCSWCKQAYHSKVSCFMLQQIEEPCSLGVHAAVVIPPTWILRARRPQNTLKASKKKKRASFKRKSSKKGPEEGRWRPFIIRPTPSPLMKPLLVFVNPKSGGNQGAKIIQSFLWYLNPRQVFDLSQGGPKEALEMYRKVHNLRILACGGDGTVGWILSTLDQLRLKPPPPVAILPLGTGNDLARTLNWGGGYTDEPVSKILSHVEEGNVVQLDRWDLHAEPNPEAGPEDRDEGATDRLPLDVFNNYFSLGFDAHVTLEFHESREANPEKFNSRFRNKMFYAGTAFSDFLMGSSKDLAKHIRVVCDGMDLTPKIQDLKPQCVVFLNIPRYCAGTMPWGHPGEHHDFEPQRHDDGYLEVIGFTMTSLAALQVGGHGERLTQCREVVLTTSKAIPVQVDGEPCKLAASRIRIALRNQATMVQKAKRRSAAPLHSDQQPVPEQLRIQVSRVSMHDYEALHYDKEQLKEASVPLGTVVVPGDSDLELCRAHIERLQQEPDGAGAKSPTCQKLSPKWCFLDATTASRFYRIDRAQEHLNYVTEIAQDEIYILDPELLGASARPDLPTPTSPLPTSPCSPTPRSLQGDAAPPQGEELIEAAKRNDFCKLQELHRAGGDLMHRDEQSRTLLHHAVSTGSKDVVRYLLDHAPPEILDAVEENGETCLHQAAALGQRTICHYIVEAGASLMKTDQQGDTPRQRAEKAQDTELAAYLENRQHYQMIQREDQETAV

[4] = tested on: peripheral blood mononuclear cells (PBMCs); test: Preclinical in vitro CD69 expression by PBMCs after TCR mediated stimulation; type: cell-based; details: after the TCR mediated stimulation
Description: The whole blood samples will be collected from the treated patients to evaluate pharmacodynamics effects of the Compound I. The preclinical in vitro studies have identified CD69 expression by peripheral blood mononuclear cells (PBMCs) as the best pharmacodynamic biomarker candidate. The CD69 is early activation biomarker expressed by many immune cells including T-cells. […] To evaluate the pharmacodynamics effect of Compound I, the PBMCs will be isolated and stimulated in vitro by CD3/CD28; the expression of the CD69 will be measured by flow cytometry.

T cell = test: Nonclinical pharmacology: DAG downstream pathway and T cell activation upon TCR stimulation; type: cell-based
[5] = tested on: syngeneic mouse models (inflamed tumor and TIL-poor tumor models); test: Antitumor efficacy in syngeneic mouse tumor models; type: in vivo

CNC[C@H]1CN(c2c(NC(=O)c3ccn(-c4ccnnc4)n3)ccc(Oc3ccccc3F)c2C(F)(F)F)CCN1C [Compound I, N-[4-(2-Fluorophenoxy)-2-{(3S)-4-methyl-3-[(methylamino)methyl]piperazin-1-yl}-3-(trifluoromethyl)phenyl]-1-(pyridazin-4-yl)-1H-pyrazole-3-carboxamide]
Human equivalent dose of the STD10 in rats ([1]; body surface area conversion, factor 0.16 for rat): 4.8 mg/kg
STD10 ([1]; rats, 4-week repeated dose): 30 mg/kg/day
nonclinical safety findings [2]: risk of effect on body weight, gastrointestinal tract, electrocardiogram (ECG) parameters, hemodynamic and body temperature, lymphohematopoietic system and reproductive toxicity
Human equivalent dose of the HNSTD in cynomolgus monkeys ([3]; body surface area conversion, factor 0.32 for monkey): 0.96 mg/kg
HNSTD ([3]; cynomolgus monkeys, 4-week repeated dose): 3 mg/kg/day
DGKζ activity (DGKζ): inhibits DGKζ activity
expression of CD69 [4]: induces increased expression of CD69
activation of DAG downstream pathways and T cell activation (T cell): enhances activation of DAG downstream pathways as well as T cell activation
Anti-tumor efficacy ([5]; anti-PD-1 poor-responsive syngeneic mouse models as well as responsive models): demonstrated
antitumor efficacy ([5]; oral administration, inflamed tumor and TIL-poor tumor models): demonstrated antitumor efficacy
